Measured values taken from patent publication US7910559B2, “Decladinosyl-macrolides with anti-inflammatory activity” (GlaxoSmithKline istrazivacki centar Zagreb d.o.o., priority 2005, dated 2011).

Key:
Type in all cases: cell-based
human IL-8 = experiment: Inhibition of IL-8 production by stimulated human peripheral blood leukocytes in vitro (ELISA); settings: PBL
Experimental: (§1) Substances, used in in vitro experiments, were dissolved in dimethyl sulfoxide (DMSO) (Kemika, Croatia) at concentrations of 50 mM and 10 mM and were further diluted to the final concentrations of […] in 1 mL Dulbecco's modified Eagle medium (DMEM) supplemented with 1% heat inactivated fetal bovine serum (FBS), 1% glutamax, 50 U/ml penicillin, 50 μg/ml streptomycin and 2.5 μg/mL Fungizone (amphotericin B). Media and all media supplements were purchased from Gibco, Australia, except FBS that was from Sigma, USA.
(§2) Peripheral blood leukocytes (PBL) were obtained from venous blood of healthy volunteers by sedimentation on 2% dextran T-500 (Amersham Biosciences, USA) and subsequent centrifugations of leukocyte-rich plasma.
(§3) Peripheral blood leukocytes (PBL), isolated as described above, were seeded in a 48-well plate at a concentration of 3-5×10^6 cell per well in culture medium consisting of RPMI 1640 medium (Institute of Immunology, Croatia) supplemented with 10% heat-inactivated fetal calf serum (FCS, Biowhittaker, USA), 100 U/ml penicillin (Gibco, Australia), 100 μg/ml streptomycin (Gibco, Australia) and 2 mM L-glutamine (Gibco, Australia), and preincubated with the tested compounds for 2 h at 37° C., in an atmosphere of 5% CO2, and 90% humidity. Afterwards, stimuli (Sigma, USA) were added to a final concentration of 2 μg/mL lipopolysaccharide (LPS), 1 μg/mL phorbol 12-myristate 13-acetate (PMA) or 120 μg/mL zymosan. Samples were incubated overnight under conditions described above. At the end of incubation supernatants were transferred to eppendorf tubes and centrifuged for 10 min at 1500 g. Concentrations of human TNF-α, IL-1β, IL-6 and IL-8 were determined in cell supernatants by sandwich ELISA, using capture and detection antibodies (R&D, USA) according to manufacturer's recommendations.
(§4) Inhibition (as percentage) was calculated using the following formula: % inhibition=(1−concentration of cytokines in sample/concentration of cytokines in positive control)×100 where “positive control” refers to stimulated samples not treated with substances.

human TNF-α = experiment: Inhibition of TNF-α production by stimulated human peripheral blood leukocytes in vitro (ELISA); settings: PBL
Experimental: as §1, §2, §3, §4

human IL-1β = experiment: Inhibition of IL-1β production by stimulated human peripheral blood leukocytes in vitro (ELISA); settings: PBL
Experimental: as §1, §2, §3, §4

human IL-6 = experiment: Inhibition of IL-6 production by stimulated human peripheral blood leukocytes in vitro (ELISA); settings: PBL
Experimental: as §1, §2, §3, §4

[1] = system: human peripheral blood mononuclear cells (PBMC); experiment: Human peripheral blood mononuclear cell proliferation in vitro ((3H)thymidine incorporation)
Experimental: as §1
Heparinized peripheral blood was obtained from healthy donors, and peripheral blood mononuclear cells (PBMC) were isolated by Histopaque 1077 (Sigma, USA) density centrifugation at 400 g for 30 minutes. Collected PBMC were centrifuged in plasma at 400 g/10 min, resuspended and washed in RPMI 1640 (Institute of Immunology, Croatia) by centrifugation.
Influence of substances at two different concentrations (50 μM and 10 μM) on proliferation of human peripheral blood mononuclear cells (PBMC) was assessed.
Heparinized peripheral blood was obtained from healthy donors, and PBMC were isolated by Histopaque 1077 (Sigma, USA) density centrifugation at 400 g for 30 minutes. 5×10^4 cells/well were cultured for 3 days in the RPMI medium as described above, in the presence (positive control) or absence (negative control) of stimulators [PHA (2.5 μg/mL) (Sigma, USA) or both PMA (10 ng/mL) (Sigma, USA) and ionomycin (500 ng/mL) (Calbiochem, USA)] and tested substances at 37° C. in 5% CO2 and 90% humidity. The cells were pulsed with 1 μCi of (^3H)thymidine (Amersham, USA) per well during the last 18 h of the cultures and were harvested on a 96-well filter (Packard Bioscience, USA) with a multiple cell harvester (Packard, USA). The incorporation of (^3H)thymidine in activated cells was measured by TopCount NXT (Packard, USA).
Inhibition of cell proliferation (as a percentage) was calculated using the following formula: % inhibition=(1−(^3H)thymidine incorporation expressed in counts per minute (cpm) in sample/(3H)thymidine incorporation expressed in cpm in positive control)×100 where “positive control” refers to stimulated samples not treated with substances.

[2] = LPS stimulation, compound 10 μM
[3] = LPS stimulation, compound 50 μM
[4] = PMA stimulation, compound 10 μM
[5] = PMA stimulation, compound 50 μM
[6] = zymosan stimulation, compound 10 μM
[7] = zymosan stimulation, compound 50 μM

Substance: 3-O-(3-Diethylamino-propionyl)-3-O-decladinosyl-6-O-methyl-9a-aza-9a-homoerythromycin A [Example 2]
- Percentage of inhibition of IL-8 production (human IL-8; [2]): 40%
- Percentage of inhibition of IL-8 production (human IL-8; [3]): 96%
- Percentage of inhibition of IL-8 production (human IL-8; [4]): 0%
- Percentage of inhibition of IL-8 production (human IL-8; [5]): 92%
- Percentage of inhibition of IL-8 production (human IL-8; [6]): 32%
- Percentage of inhibition of IL-8 production (human IL-8; [7]): 87%
- Percentage of inhibition of TNF-α production (human TNF-α; [2]): 37%
- Percentage of inhibition of TNF-α production (human TNF-α; [3]): 80%
- Percentage of inhibition of TNF-α production (human TNF-α; [4]): 34%
- Percentage of inhibition of TNF-α production (human TNF-α; [5]): 55%
- Percentage of inhibition of TNF-α production (human TNF-α; [6]): 13%
- Percentage of inhibition of TNF-α production (human TNF-α; [7]): 60%
- Percentage of inhibition of IL-1β production (human IL-1β; [2]): 83%
- Percentage of inhibition of IL-1β production (human IL-1β; [3]): 91%
- Percentage of inhibition of IL-1β production (human IL-1β; [4]): 60%
- Percentage of inhibition of IL-1β production (human IL-1β; [5]): 78%
- Percentage of inhibition of IL-1β production (human IL-1β; [6]): 96%
- Percentage of inhibition of IL-1β production (human IL-1β; [7]): 94%
- Percentage of inhibition of IL-6 production (human IL-6; [2]): 40%
- Percentage of inhibition of IL-6 production (human IL-6; [3]): 94%
- Percentage of inhibition of IL-6 production (human IL-6; [4]): 17%
- Percentage of inhibition of IL-6 production (human IL-6; [5]): 68%
- Percentage of inhibition of IL-6 production (human IL-6; [6]): 45%
- Percentage of inhibition of IL-6 production (human IL-6; [7]): 91%
- Percentage of inhibition of proliferation of stimulated PBMC ([1]; PHA stimulation, compound 10 μM): 80%
- Percentage of inhibition of proliferation of stimulated PBMC ([1]; PHA stimulation, compound 50 μM): 98%
- Percentage of inhibition of proliferation of stimulated PBMC ([1]; PMA + ionomycin stimulation, compound 10 μM): 0%
- Percentage of inhibition of proliferation of stimulated PBMC ([1]; PMA + ionomycin stimulation, compound 50 μM): 99%
